Legend:
[1] = tested on: HbF; design: method as in PMID 16888791, PMID 12393499, PMID 25808664, PMID 24606390, PMID 16939493; settings: cell lines and primary cells; cited from earlier work
[2] = tested on: HbF protein; test: HbF protein by flow cytometry in BM cells (CS1, CS2); type: cell-based, human; settings: 1 μM ACY-957 or 30 μM hydroxyurea
Protocol: CD34+ cells isolated from human bone marrow of healthy normal donors (Lonza, AllCells, or StemCell Technologies), referred to as BM cells throughout this work, were cultured using two distinct 2-phase culture systems. These systems have been described previously and are referred to as Culture System 1 (CS1) and Culture System 2 (CS2) throughout this work. CS1 expansion media is StemSpan SFEM (StemCell Technologies) supplemented with CC100 (StemCell Technologies), 100 U/mL penicillin and 100 μg/mL streptomycin. CC100 is a mix of Flt-3 ligand (FLT3LG), KIT ligand (KITLG), interleukin-3 (IL3), and interleukin-6 (IL6). CS1 differentiation media is StemSpan SFEM supplemented with 1 U/ml erythropoietin (EPO), 5 ng/mL IL3, 20 ng/mL KITLG, 2 μM dexamethasone, 1 μM beta-estradiol, 100 U/mL penicillin and 100 μg/mL streptomycin. CS2 expansion media is StemSpan SFEM supplemented with 1% glutamine, 40 μg/mL lipids (Sigma), 100 ng/mL KITLG, 10 ng/mL IL3, and 0.5 U/mL EPO. CS2 differentiation media is same as CS2 expansion media, except 3 U/mL EPO.
Flow cytometry was performed on a FC500 flow cytometer ([…]). Fetal hemoglobin protein was assayed using the Fetal Hemoglobin Test Kit (Life Technologies) according to manufacturer’s protocol. Samples were stained with FITC-conjugated mouse IgG1 anti-human HbF antibody (clone HbF-1, Life Technologies). Each sample was also stained with a FITC-conjugated mouse IgG1 isotype control antibody (clone X40, BD Biosciences) and used as a negative control. FETALtrol cells were used as positive controls (Trillium Diagnostics). TFRC and GYPA were detected on fresh cells by staining with 20 μL of PE-conjugated anti-human TFRC (clone M-A712, catalog 555537, BD Biosciences) and 0.5 μL of FITC- or APC-conjugated anti-human GYPA (clone GA-R2 (HIR2), catalog 559943 or 551336, BD Biosciences) in 200 μL PBS with 0.1% BSA for 40 min on ice. Forward and side scatter, or staining with 7AAD (catalog 559925, BD Biosciences), was used to identify viable cells.
To determine if the HBG mRNA induction observed in the presence of ACY-957 was associated with an increase in the HbF protein, CS1 and CS2 cells at day 5 were stained with a fluorescently conjugated anti-HbF antibody and evaluated by flow cytometry. HbF positive cells were increased by 2 to 3-fold upon treatment with ACY-957, which exceeded the response observed with hydroxyurea (Fig 2B and 2E).

[3] = tested on: erythroid progenitors; design: method as in PMID 16939493; settings: by suppressing the EPO-mediated survival of CD36highGYPAhigh cells; cited from earlier work

SMILES | HbF induction [1] | effect on erythroid progenitors [3] | other results
Nc1ccccc1NC(=O)c1ccc(CNC(=O)OCc2cccnc2)cc1 [MS-275] | induce HbF | – | –
CCN(CC)Cc1ccc2cc(COC(=O)Nc3ccc(C(=O)NO)cc3)ccc2c1 [givinostat] | induce HbF | – | –
NC(=O)NO [hydroxyurea, reference compound] | – | – | HbF positive cells ([2]; CS1, day 5): 20%; MFI of HbF positive cells ([2]; CS1, day 5): 52; HbF positive cells ([2]; CS2, day 5): 39%; MFI of HbF positive cells ([2]; CS2, day 5): 12
C/C=C1\NC(=O)[C@H]2CSSCC/C=C/[C@H](CC(=O)N[C@H](C(C)C)C(=O)N2)OC(=O)[C@H](C(C)C)NC1=O [romidepsin] | induce HbF | accumulation CD36^highGYPA^mid erythroid progenitors | –
CC(/C=C/C(=O)NO)=C\[C@@H](C)C(=O)c1ccc(N(C)C)cc1 [trichostatinA] | – | accumulation CD36^highGYPA^mid erythroid progenitors | –
O=C(CCCCCCC(=O)Nc1ccccc1)NO [vorinostat] | induce HbF | – | –

— publication PMC4830539, “Chemical Inhibition of Histone Deacetylases 1 and 2 Induces Fetal Hemoglobin through Activation of GATA2” (PLoS ONE, 2016)
